Data as given in patent US8470783B2, “Medicinal use of histone deacetylase inhibitor and method of evaluating antitumor effect thereof” (Astellas Pharma Inc., priority 2001, dated 2013).

Experiments:
[1] = tested on: p21 gene expression in PC-3 cells; experiment: p21 gene expression in vitro by real time PCR, PC-3 (Example 4); assay type: cell-based, human; conditions: PC-3, FR901228 5 ng/mL, FIG. 4(a)
Description: (§1) A necessary amount of FR901228 was weighed and dissolved in a solvent (99.5% ethanol) to the concentration of 1 mg/mL. Then, the solution was diluted with culture medium.
(§2) Cultured human cancer cell (PC-3 and ACHN) were cultured in DMEM (containing 10% FCS).
(§3) The cells were inoculated at 2×10^6 cells per a culture dish, and cultured in the presence of FR901228 (5 ng/mL) for a given time. After culturing, RNA was extracted with a TRIZOL reagent (GIBCO BRL) according to the operation manual.
(§4) RNA was subjected to reverse transcription using a Taq-man reverse transcription reagent (PE Biosystem) according to the operation manual. Thereafter, p21 gene was amplified using a SYBR green PCR master mix (PE Biosystem) and primer 5′-GGCAGACCAGCATGACACATT-3′ (p21 upstream)(SEQ ID; No 1), 5′-GGATTAGGGCTTCCTCTTGGAG-3′ (SEQ ID; No 2) according to the operation manual, and detected with ABI 7700 PRISM sequence detector (PE Biosystem). The expression amount of p21 gene was calculated from a standard curve, divided by the expression amount of β-actin gene, which was used as an internal standard, and expressed in a standardized relative expression amount.

[2] = tested on: human prostate cancer cell line PC-3; experiment: Antitumor test, human prostate cancer PC-3 solid tumor in nude mice (Example 1); assay type: in vivo, mouse; conditions: PC-3, i.v. q4d×3, 3.2 and 1.8 mg/kg, FIG. 1
Description: (§5) A necessary amount of FR901228 was weighed and a solvent (10% HCO-60/saline) was added. The mixture was sonicated to allow for dissolution. A positive control substance Paclitaxel was dissolved in Cremophor EL/ethanol (1:1) solution to 24 mg/mL prior to the testing, and preserved in a refrigerator. When in use, it was diluted with a 9-fold amount of physiological saline to 2.4 mg/mL (solvent component: 5% Cremophor EL-5% ethanol-90% saline).
For antitumor test of the pharmaceutical agent, BALB/cANnNCrj-nu/nu mice (male, 6-week-old) were purchased from Charles River Japan and, after acclimation for not less than one week, used for the test. The mice were reared under an SPF environment and allowed a free access to water and feed. […]
(§6) The administration was started on the day of grouping (Day 0). […] The amount of liquid for each administration was calculated (0.1 mL/10 g body weight) based on the body weight measured on the administration day. […]
(§7) The tumor size (longer diameter, shorter diameter) and body weight were measured twice a week from Day 0.
The level of tumor growth was evaluated based on the tumor growth rate (Relative Tumor Volume). […] The antitumor effect was determined on the 14th day (Day 14) from the start of the administration of the pharmaceutical agent. […]

[3] = tested on: p21 gene and c-myc gene expression in ACHN tumor; experiment: p21 and c-myc gene expression in vivo in ACHN tumor of nude mouse (Example 5); conditions: 3.2 mg/kg i.v.
Description: (§8) Human prostate cancer PC-3 or kidney cancer ACHN was subcutaneously implanted in a nude mouse, and when the size of the tumor reached 100-300 mg, FR901228 (3.2 mg/kg) was intravenously administered. The tumor was removed with the lapse of time, and after extracting RNA, the expression amount of p21 gene and c-myc gene was examined by real time PCR in the same manner as in Example 4. The c-myc gene was amplified using a SYBR green PCR master mix (PE Biosystem) and primer 5′-GACAGATCAGCAACAACCGAAA-3′ (human c-myc upstream)(SEQ ID; No 3), 5′-TTGTGTGTTCGCCTCTTGACAT-3′ (human c-myc downstream)(SEQ ID; No 4) according to the operation manual, and detected with ABI 7700 PRISM sequence detector (PE Biosystem).

[4] = tested on: human lymphoma cell line U937; experiment: Survival test, human lymphoma U937 implanted intraperitoneally in SCID mice (Example 2); assay type: in vivo, mouse; conditions: U937, i.p. once or twice a week, 0.1-1.0 mg/kg, FIG. 2
Description: A necessary amount of FR901228 was weighed and a solvent (10% HCO-60/saline) was added. The mixture was sonicated to allow for dissolution.
For antitumor test of the pharmaceutical agent, Fox Chase C. B-17/Icr-SCID.Jcl mice (male, 6-week-old) were purchased from CLEA JAPAN INC. and, after acclimation for not less than one week, used for the test. The mice were reared under an SPF environment and allowed a free access to water and feed.
Cultured human lymphoma cell line (U937: obtained from Dr. Minowada, Hayashibara Biochemical Laboratories, Inc.) was cultured in RPMI (containing 10% FCS) and subcultured in vitro.
Cyclo phosphamide (Shionogi & Co., Ltd., 150 mg/kg) was intraperitoneally administered to mice. Lymphoma (1×10^7 cells) subcultured in vitro was intraperitoneally implanted the next day. After the tumor implantation, the mice were grouped into 6 (control group 12) mice per group to level the body weight.
The administration was started on the day of grouping (Day 0). FR901228 was intraperitoneally administered to an FR901228 administration group once or twice a week (0.1-1.0 mg/kg). Only a solvent (10% HCO-60/saline) was administered to a control group.
As an antitumor effect, the survival days of the mice were counted.

[5] = tested on: human kidney cancer ACHN; experiment: In vivo growth suppression rate, ACHN tumor-carrying mice; set-up: species or system mouse; conditions: FR901228 3.2 mg/kg
Description: (§9) The growth suppression rate of human prostate cancer PC-3, human gastric cancer SC-6, human kidney cancer ACHN and human kidney cancer A498 by the administration of FR901228 (3.2 mg/kg) was 98%, 84%, 20% and 29%, respectively. Therefore, PC-3 and SC-6 were determined to be FK228 sensitive tumors, and ACHN and A498 were determined to be FK228 resistant tumors.

[6] = tested on: p21 gene expression in ACHN cells; experiment: p21 gene expression in vitro by real time PCR, ACHN (Example 4); assay type: cell-based, human; conditions: FR901228 5 ng/mL, FIG. 4(b)
Description: as §1, §2, §3, §4

[7] = tested on: human prostate cancer PC-3; experiment: In vivo growth suppression rate, PC-3 tumor-carrying mice; set-up: species or system mouse; conditions: PC-3, FR901228 3.2 mg/kg
Description: as §9

[8] = tested on: human kidney cancer A498; experiment: In vivo growth suppression rate, A498 tumor-carrying mice; set-up: species or system mouse; conditions: A498, FR901228 3.2 mg/kg
Description: as §9

[9] = tested on: human gastric cancer SC-6; experiment: In vivo growth suppression rate, SC-6 tumor-carrying mice; set-up: species or system mouse; conditions: SC-6, FR901228 3.2 mg/kg
Description: as §9

[10] = tested on: p21 gene and c-myc gene expression in PC-3 tumor; experiment: p21 and c-myc gene expression in vivo in PC-3 tumor of nude mouse (Example 5); conditions: 3.2 mg/kg i.v.
Description: as §8

[11] = tested on: human kidney cancer cell line ACHN; experiment: Antitumor test, human kidney cancer ACHN solid tumor in nude mice (Example 3); assay type: in vivo, mouse; conditions: i.v. q4d×3, FIG. 3(b)
Description: as §5
(§10) For antitumor test of the pharmaceutical agent, BALB/cANnNCrj-nu/nu mice (male, […]) were purchased from Charles River Japan and, after acclimation for not less than one week, used for the test. The mice were reared under an SPF environment and allowed a free access to water and feed. […]
as §6, §7
(§11) The level of tumor growth was evaluated based on the tumor growth rate (Relative Tumor Volume). […] The antitumor effect was determined on the 14th day (Day 14) from the start of the administration of a pharmaceutical agent. […]

[12] = tested on: histone deacetylase; conditions: Nakajima, H. et al (1998); cited from earlier work
[13] = tested on: human prostate cancer cell line PC-3; experiment: Antitumor test, human prostate cancer PC-3 solid tumor in nude mice (Example 3); assay type: in vivo, mouse; conditions: dose of 3.2 mg/kg i.v. q4d×3, FIG. 3(a)
Description: as §5, §10, §6, §7, §11

[14] = tested on: human kidney cancer ACHN; experiment: In vitro growth suppression, ACHN; assay type: cell-based; conditions: contacted for 72 hr
[15] = tested on: human prostate cancer PC-3; experiment: In vitro growth suppression, PC-3; assay type: cell-based; conditions: PC-3, contacted for 72 hr
[16] = tested on: human lymphoma U937; experiment: In vitro growth suppression, U937; assay type: cell-based; conditions: U937, contacted for 72 hr

Row | Compound | p21 gene expression in vitro [1] | antitumor effect in vivo against human prostate cancer (tumor growth rate) [2] | c-myc gene expression in vivo [3] | p21 gene expression in vivo ([3]; FIG. 5(a)) | antitumor effect in vivo against human lymphoma (survival of mice) [4] | growth suppression rate [5] | p21 gene expression in vitro [6] | growth suppression rate [7] | growth suppression rate [8] | growth suppression rate [9] | c-myc gene expression in vivo [10] | time of peak of p21 gene expression after administration [10] | p21 gene expression in vivo ([10]; FIG. 5(a)) | antitumor effect against ACHN (tumor growth rate) [11] | histone deacetylase inhibitory activity [12] | antitumor effect against PC-3 (tumor growth rate) [13] | growth suppression effect in IC50 value [14] | growth suppression effect in IC50 value [15] | growth suppression effect in IC50 value [16]
1 | C/C=C1\NC(=O)[C@H]2CSSCC/C=C/[C@H](CC(=O)N[C@H](C(C)C)C(=O)N2)OC(=O)[C@H](C(C)C)NC1=O [FR901228] | increased expression of the p21 gene with the lapse of time | showed an antitumor effect | increased expression | did not show increased expression of p21 gene | showed an antitumor effect | 20% | did not show increased expression of p21 gene | 98% | 29% | 84% | decreased expression | 3 h | increased expression of p21 gene | did not show an antitumor effect | stronger histone deacetylase inhibitory activity | potent antitumor effect |  |  | 
2 | FK228 |  |  |  |  |  |  |  |  |  |  |  |  |  |  |  |  | 4.25 ng/mL | 3.17 ng/mL | 3.20 ng/mL
